In the METLIN SMRT retention time set (Domingo-Almenara et al. 2019):

Test: gradient 5% acetonitrile 3 min, to 50% in 2 min, to 85% in 15 min, held 3 min, 100 µL/min
Conditions: column: Zorbax Extend-C18 2.1 x 50 mm; eluents: water / acetonitrile, 0.1% formic acid
Procedure, shortened: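 Retention times come from adduct peaks that were picked computationally and then checked by hand. The standards, pure and pooled in mixtures of ~100 molecules, were run on a Zorbax Extend-C18 column (2.1 × 50 mm, 1.8 μm) at 100 μL/min with water and acetonitrile, each with 0.1% formic acid. Detection was by quadrupole time-of-flight mass spectrometry in positive and negative ionization mode, with a dead volume of 40 μL and a dwell volume of 900 μL.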

| Compound | RP-LC retention time |
| --- | --- |
| COc1ccc(CN2C(=O)C3(CCOCC3)CC2c2nnnn2C(C)(C)C)cc1 (stereo unspecified) | 760 s |
| O=C(NC1CCCCC1)c1cc2n(n1)CCCN(Cc1ccccc1)C2=O | 891 s |
| CCc1noc(NC(C)=O)c1-c1ccc(OC)c(S(=O)(=O)Nc2ccc(C)c(F)c2)c1 | 836 s |
| Cc1c(C(=O)NCc2c(F)cccc2F)c(C(F)(F)F)nn1C(C)C | 867 s |
| NS(=O)(=O)c1ccc(CCNC(=O)c2cccc(-n3cnnn3)c2)cc1 | 617 s |
| CC(NC(=O)CC1CCN(S(=O)(=O)c2ccccc2)CC1)c1ccc2c(c1)OCCO2 (stereo unspecified) | 846 s |
| CCOC(=O)c1c(NCCC(C)C)c2ccc(Cl)cc2[nH]c1=O | 900 s |
| Cc1cc(C(=O)NCC23CCCC=C2NC(=O)CC3)nn1C (stereo unspecified) | 641 s |
| Cn1c(=O)cnc2ccc(N3CCOCC3)nc21 | 662 s |
| CCN1C(=O)c2ccccc2Oc2ccc(C(=O)NCc3cccc(OC)c3)cc21 | 921 s |
| O=C(N[C@H]1C[C@@H]2C[C@H]1N(C(=O)NCCc1ccccc1)C2)c1ccccc1 | 740 s |
| COc1ccc(-c2cc(C(=O)Nc3cc(F)cc(F)c3)sn2)cc1 | 1200 s |
| CCOc1ccc(-c2noc(Cn3nc(-c4ccc(C)c(C)c4)ccc3=O)n2)cc1 | 1230 s |
| CCCOc1nc2c(c(=O)n(C)c(=O)n2C)n1C | 788 s |
| CCCN(CC1CCOC1)S(=O)(=O)Cc1ccccc1Cl (stereo unspecified) | 930 s |
| CCCC(=O)N1CCCn2nc(-c3ccncc3)cc2C1 | 577 s |
| Cc1ccnc(C(=O)Nc2ccc(Nc3ccc(-n4nc(C)c(C)c4C)nn3)cc2)n1 | 692 s |

| Compound | RP-LC retention time |
| --- | --- |
| Cc1ccccc1OCC(=O)Nc1ccc2c(c1)Sc1ncccc1C(=O)N2C(C)C | 972 s |
| CCC(c1cccs1)N1C(=O)[C@H]2CN(S(=O)(=O)c3ccc(F)cc3F)C[C@H]2C1=O (stereo partly specified) | 1000 s |
| Cc1ccc(-c2cc3c(=O)n(Cc4noc(CN5CCc6ccccc65)n4)ccn3n2)cc1 | 1100 s |
| O=C(NCC1CCOCC1)c1c[nH]c2ccccc12 | 636 s |
| Cc1ccc(S(=O)(=O)Nc2ccc3c(c2)CCC(=O)N3CC(C)C)cc1Cl | 994 s |
| CC(C)CCN1CCC(N2CCN(C(=O)C3CCCC3)CC2)C1=O (stereo unspecified) | 585 s |
| CCC(=O)Nc1ccc2c(c1)nc(CN1CCOCC1)n2C(C)C | 587 s |
| CC(C)C(=O)N1CCCC(c2nc(CNC(=O)C3CCC3)cs2)C1 (stereo unspecified) | 679 s |
| Clc1ccc(Cl)c(-c2ccc(CNCc3ccco3)o2)c1 | 737 s |
| CC(C)(C)OC(=O)Nc1cnc(C(=O)O)cn1 | 625 s |
| Cc1ccc(-c2nnc(CC(=O)NCCc3cccs3)o2)cc1 | 771 s |
| CC(=O)N1CCC(C(=O)N2CCCCCCNC(=O)[C@@H]3CCCC[C@@H]32)CC1 | 657 s |
| Cc1nn(C(C)C(=O)NC(C)C)c(=O)c2nn(-c3ccccc3)c(C)c12 (stereo unspecified) | 739 s |
| Clc1cccc(-c2ccc(CNCCCn3ccnc3)o2)c1 | 588 s |
| Cc1cc(C)c2c(N3CCCC3)nc(C(=O)NCc3cccnc3)nc2n1 | 537 s |
| Cc1ccc(CNC(=O)c2c(C)sc3ccn(CC(C)C)c(=O)c23)cc1 | 999 s |

Other lines, results leading:

| RP-LC retention time | Compound |
| --- | --- |
| 650 s | Cc1cccc(-c2nc3cnccn3c2NCCC(=O)N2CCCC2)c1 |
| 737 s | CCc1c(C(=O)O)nnn1-c1ccc(C)cc1F |
| 873 s | CCCCC(=O)N1CCN(C(=O)c2cc3cc(Br)ccc3[nH]2)CC1 |
| 1150 s | CCc1ccccc1S(=O)(=O)N1CCc2nc(-c3ccc(OC)cc3)ncc2C1 |
| 903 s | O=C(Cn1c(=O)c2cccn2c2ccc(F)cc21)NCc1cccc(Br)c1 |
| 951 s | CCOc1ccc(-c2noc(C3CC(=O)N(c4ccc5c(c4)OCO5)C3)n2)cc1 (stereo unspecified) |
| 579 s | CC(C)N1CCN(C(=O)C2CC(=O)N(c3ccc4c(c3)CCN4C(=O)C3CC3)C2)CC1 (stereo unspecified) |
| 1100 s | COC(=O)c1sccc1NC(=O)Cn1cc(-c2nc(-c3ccc(Cl)cc3)no2)ccc1=O |
| 785 s | Cc1ccc(-c2ccc(-n3nc(C)c(S(=O)(=O)N4CCN(C(C)C)CC4)c3C)nn2)cc1C |
| 735 s | CC(=O)Oc1cccc(C2C3=C(CC(C)(C)CC3=O)Nc3ccccc3N2C(C)=O)c1 (stereo unspecified) |
| 961 s | COC(=O)c1c(C)[nH]c(C(=O)N2CCCC(C(=O)N3CCN(c4cc(C)ccc4C)CC3)C2)c1C (stereo unspecified) |
| 605 s | CCOC(=O)c1nc(NCC2CCN(Cc3cccc(F)c3)CC2)c2ccccc2n1 |
| 933 s | Cc1ccccc1-c1nnc(CSc2ccc(NC(=O)C3CC3)cc2)o1 |
| 656 s | O=C(NCc1ccc(N2CCOCC2)cc1)c1cn2nc(Cl)ccc2n1 |
| 992 s | CCc1ccc(NC(=O)C2CCCN(S(=O)(=O)c3cc(-c4noc(C)n4)cs3)C2)cc1 (stereo unspecified) |
| 986 s | Cc1ccc(Cn2c(=O)c(N3CCC(NC(=O)NC(C)C)CC3)nc3cccnc32)cc1 |
| 908 s | O=C(Nc1ccc(C(F)(F)F)cc1)C1CCCN(S(=O)(=O)c2c[nH]c(C(=O)N3CCCC3)c2)C1 (stereo unspecified) |

| RP-LC retention time | Compound |
| --- | --- |
| 1040 s | O=S(=O)(c1ccc(Cl)c(-c2nnc(-c3ccccc3)o2)c1)N1CCCC1 |
| 596 s | CSc1ccccc1CN1CCC(CNC(=O)C2(c3ccc(F)cc3)CC2)CC1 |
| 766 s | CC1CCN(C(=O)c2cn(CC3CCCO3)cc3c(=O)n(-c4ccccc4)nc2-3)CC1 (stereo unspecified) |
| 980 s | O=C(CCn1nnc2cc(-c3noc(-c4cccc(Br)c4)n3)ccc21)N1CCOCC1 |
| 725 s | CCNc1nc(C)cc(N2CCN(S(=O)(=O)c3cccc(Cl)c3)CC2)n1 |
| 857 s | O=C(Cn1ccn2nc(-c3ccc(F)cc3)c(CO)c2c1=O)N1CCc2ccccc21 |
| 922 s | O=c1n(Cc2ccc(F)cc2Cl)nc2ccc(S(=O)(=O)N3CCCC3)cn12 |
| 943 s | Cc1ccc(CNS(=O)(=O)c2cc3c(s2)CCN(C(=O)C2CCC2)C3)cc1 |
| 764 s | Cc1nc2cc(NC(=O)c3ccc(S(=O)(=O)N(C)CC4CCCO4)cc3)ccc2s1 (stereo unspecified) |
| 914 s | CC(=O)c1ccc(N2CCN(C(=O)c3nnn4c3COC(c3ccc(F)cc3)C4)CC2)cc1 (stereo unspecified) |
| 735 s | COC(=O)c1ncn2c1C(=O)N(Cc1ccccc1C)C(C)(C(=O)NCc1ccccc1)C2 (stereo unspecified) |
| 550 s | c1ccc(-c2nnc(-c3nc(NCCCN4CCC(N5CCCCC5)CC4)c4ccccc4n3)o2)cc1 |
| 602 s | NC1(Cc2ccc(Cl)cc2)CCN(c2ncnc3[nH]ccc23)CC1 |
| 733 s | CC1=C(c2ccccc2)S(=O)(=O)N=C1N1CCC(NC(=O)c2ccoc2)CC1 |
| 746 s | Cc1ccc(CNC(=O)C(=O)NCC(c2ccc3c(c2)CCCN3C)N2CCCC2)cc1 (stereo unspecified) |
| 668 s | CCOC(=O)c1noc2nc(C)nc(NCCCN3CCN(c4ccccc4)CC3)c12 |
